Laboratory results from patent US4057684A, “Alkyl amino-glucopyranoside derivative and process for producing the same” (priority 1975, dated 1977).

Key:
[1] = test system: Nakahara-Fukuoka sarcoma (NFS); assay: antitumor effect against Nakahara-Fukuoka sarcoma (NFS) implanted in mice; format: in vivo, mouse (ICR)
From the text: (§1) Results of pharmacological studies for amino-glucopyranoside [I] according to the invention are described below. The test compounds which were used included methyl N-carbamyl-N'-(2-chloroethyl)-N'-nitroso-2-amino-2-deoxy-α-D-glucopyranoside and methyl N-carbamyl-N'-(2-chloroethyl)-N'-nitroso-6-amino-6-deoxy-α-D-glucopyranoside (hereinafter abbreviated to 2MCαG and 6MCαG, respectively). The control compounds which were employed were 1-(2-chloroethyl)-3-cyclohexyl-1-nitrosoourea (hereinafter abbreviated to CCNU), which had been widely applied as a control compound in such a pharmacological test of the streptozotocin derivatives, and GCNU referred to previously. The tumor systems which were used were leukemia L-1210, Nakahara-Fukuoka sarcoma, adenocarcinoma-755, ascites sarcoma 180 and Ehrlich ascites carcinoma (hereinafter abbreviated to L-1210, NFS, Ca-755, S-180A and EAC, respectively), and the antitumor activities were determined by a procedure of the National Cancer Center, Tokyo (A. Hoshi et al.: Farumashia 9, 464(1973)). The test animals which were used were ICR and BDF1 mice.
(§2) ^a Treatment was initiated 24 hr after implantation of tumor (day 1):
(§3) D1~5 = qd, day 1~5; D1 = day 1 only.
(§4) ^b T/C is expressed as the tumor weight ratio in solid tumors or tota
(§5) packed cell volume ratio in ascites tumors of treated/control.

[2] = peripheral white blood cell counts (bone marrow toxicity) and survival in normal male ICR mice; format: in vivo, mouse (ICR)
Protocol: Such peripheral white blood cell counts were performed as follows: Normal male ICR mice were used in groups of tens and the test compounds for treatment were made into their respective solutions. 2MCαG and 6MCαG were dissolved in physiological saline solutions, while CCNU and GCNU were suspended in 0.5% CMC aqueous solution and 50% PEG aqueous solution, respectively. A single administration at volume of 1 ml per 100 g body weight of animal (0.1 ml/10 g) was given intraperitoneally, and the peripheral white blood cell counts were performed 3, 8 and 15 days after administration of the test compounds.

[3] = blood sugar level / diabetogenic activity; format: in vivo, rat (male Wister); conditions: rat, in vivo
[4] = test system: adenocarcinoma-755 (Ca-755); assay: antitumor effect against adenocarcinoma-755 (Ca-755) implanted in mice; format: in vivo, mouse (BDF1)
From the text: as §1, §2, §3, §4, §5

bacteria = assay: antibacterial activity, broth dilution method
leukemia L-1210 = assay: increase in life span and survival of leukemia L-1210 implanted mice; format: in vivo, mouse (BDF1)
From the text: as §1, §2, §3
^d % increase in life span (mean survival time) over controls.
^e 60 days survivors/total in treated group.

[5] = test system: solid as well as ascites tumor systems; assay: antitumor activity in the tumor systems (overall); format: in vivo, mouse; conditions: mouse, in vivo
From the text: as §1

[6] = acute toxicity (LD50) in mice; format: in vivo, mouse (ICR)
[7] = 12.5 mg/kg/day ip D1~5, ICR mice
[8] = 25.0 mg/kg/day ip D1~5, ICR mice
[9] = 35.0 mg/kg/day ip D1~5, ICR mice
[10] = 50.0 mg/kg/day ip D1~5, ICR mice
[11] = 6.3 mg/kg/day ip D1~5, BDF1 mice
[12] = 12.5 mg/kg/day ip D1~5, BDF1 mice
[13] = 25.0 mg/kg/day ip D1~5, BDF1 mice
[14] = 50.0 mg/kg/day ip D1~5, BDF1 mice

## CO[C@H]1O[C@H](CNC(=O)N(CCCl)N=O)[C@@H](O)[C@H](O)[C@H]1O [Example 6MCαG, methyl N-carbamyl-N'-(2-chloroethyl)-N'-nitroso-6-amino-6-deoxy-α-D-glucopyranoside]
[1]; [7]
  Activity: - (100~71% = -)
  T/C: 77.8%
[1]; [8]
  Activity: + (70~51% = +)
  T/C: 61.6%
[1]; [9]
  Activity: ++ (50~21% = ++)
  T/C: 38.8%
[1]; [10]
  Activity: Toxic
  T/C: 34.1%
  died/used: 6/6
[1]; ip, 5 successive days
  antitumor effect compared with CCNU: more active than CCNU
[2]; 40 mg/kg ip single
  Death rate (death/used): 0/10
[2]; 40 mg/kg ip single, day 3
  Average count of WBC: 73.2±3.5 x 10^2 WBC/mm^3
[2]; 40 mg/kg ip single, day 8
  Average count of WBC: 105.7±3.8 x 10^2 WBC/mm^3
[2]; 40 mg/kg ip single, day 15
  Average count of WBC: 136.9±10.0 x 10^2 WBC/mm^3
[2]; 60 mg/kg ip single
  Death rate (death/used): 0/10
[2]; 60 mg/kg ip single, day 3
  Average count of WBC: 41.1±4.1 x 10^2 WBC/mm^3
[2]; 60 mg/kg ip single, day 8
  Average count of WBC: 73.5±5.8 x 10^2 WBC/mm^3
[2]; 60 mg/kg ip single, day 15
  Average count of WBC: 110.4±6.3 x 10^2 WBC/mm^3
[2]; 100 mg/kg ip single
  Death rate (death/used): 2/10
[2]; 100 mg/kg ip single, day 3
  Average count of WBC: 31.2±2.5 x 10^2 WBC/mm^3
[2]; 100 mg/kg ip single, day 8
  Average count of WBC: 71.9±4.9 x 10^2 WBC/mm^3
[2]; 100 mg/kg ip single, day 15
  Average count of WBC: 99.8±10.8 x 10^2 WBC/mm^3
[2]; 150 mg/kg ip single
  Death rate (death/used): 10/10
[2]; 150 mg/kg ip single, day 3
  Average count of WBC: 28.1±3.8 x 10^2 WBC/mm^3
[2]; 150 mg/kg ip single, day 8
  Average count of WBC: 61.0 x 10^2 WBC/mm^3
[2]; LD10 doses
  incidence of leukopenia: comparatively mild with rapid return to pretreatment levels
[2]; mouse, in vivo
  acute toxicity compared with GCNU or CCNU: much lower than that of either GCNU or CCNU
  bone marrow toxicity: improved bone marrow toxicity
  bone marrow toxicity compared with CCNU: less toxic
  bone marrow toxicity compared with GCNU: equivalent values as GCNU
[3]
  diabetogenic activity: free from diabetogenic
[4]; [11]
  Activity: + (70~51% = +)
  T/C: 53.4%
[4]; [12]
  Activity: +++ (20~0% = +++)
  T/C: 16.3%
[4]; [13]
  Activity: +++ (20~0% = +++)
  T/C: 7.6%
[4]; [14]
  Activity: Toxic
  T/C: 0%
  died/used: 6/6
[4]; ip, 5 successive days
  antitumor effect compared with CCNU: more active than CCNU
bacteria
  antibacterial activity: free from diabetogenic and antibacterial activities
Leukemia L-1210; 3.0 mg/kg/day ip D1~5
  ILS: > 292%
  Survivors (60 days survivors/total): 2/6
Leukemia L-1210; 6.0 mg/kg/day ip D1~5
  ILS: > 639%
  Survivors (60 days survivors/total): 3/6
Leukemia L-1210; 6.0 mg/kg/day po D1~5
  ILS: > 580%
  Survivors (60 days survivors/total): 4/6
Leukemia L-1210; 10.0 mg/kg/day ip D1~5
  ILS: > 645%
  Survivors (60 days survivors/total): 3/6
Leukemia L-1210; 12.5 mg/kg/day ip D1~5
  ILS: > 520%
  Survivors (60 days survivors/total): 4/6
Leukemia L-1210; 12.5 mg/kg/day po D1~5
  ILS: > 570%
  Survivors (60 days survivors/total): 4/6
Leukemia L-1210; 25.0 mg/kg/day ip D1~5
  ILS: > 615%
  Survivors (60 days survivors/total): 4/6
Leukemia L-1210; 25.0 mg/kg/day po D1~5
  ILS: > 620%
  Survivors (60 days survivors/total): 4/6
Leukemia L-1210; 35.0 mg/kg ip D1 only
  ILS: > 717%
  Survivors (60 days survivors/total): 6/6
Leukemia L-1210; 40.0 mg/kg/day ip D1~5
  ILS: > 237%
  Survivors (60 days survivors/total): 2/6
Leukemia L-1210; 45.0 mg/kg ip D1 only
  ILS: > 717%
  Survivors (60 days survivors/total): 6/6
Leukemia L-1210; 6-25 mg/kg/day, 5 successive administrations, ip or orally
  ILS: 520-645%
Leukemia L-1210; mouse, in vivo
  activity against L-1210 compared with CCNU and GCNU: more active against L-1210
Leukemia L-1210; single ip, 35-45 mg/kg
  ILS: 717%
  animals survived: all six animals survived
[5]
  antitumor activity: activity against solid as well as ascites tumor systems
[6]; by LD50, single administration
  toxicity compared with 2MCαG: less toxic than 2MCαG
[6]; mouse, in vivo, single administration
  LD50: 91 mg/kg
